Consider 4 molecules from patent US12109266B2, “Modulating gabarap to modulate immunogenic cell death” (Dana-Farber Cancer Institute, Inc., priority 2020, dated 2024).

“Also recorded” adds a separate entry of the source.

Data set [1] concerns 5TGM1 tumors. Description: In vivo tumor growth analysis. Details: species or system mouse. The method, then:
6-week old female immunodeficient NOD.CB17-Prkdcscid/NCrCrl (NOD/SCID) mice (Charles River) and immunocompetent C57BL/KaLwRijHsd (Envigo) mice were housed in an animal facility at the Dana-Farber Cancer Institute (DFCI). All experiments were performed after approval by the Animal Ethics Committee of the DFCI and performed using institutional guidelines.
To assess the effect of BTZ in the absence of an immune system, NOD/SCID mice were subcutaneously injected with 1×10^6 5TGM1 WT cells in a 1:1 ratio with Matrigel® (Corning); to assess BTZ in an immunocompetent host, C57BL/KaLwRijHsd mice were injected with 1×10^6 5TGM1 either WT or calrKO in the same ratio with Matrigel®. When tumor became measurable, mice (5/group) were randomized to receive either PBS or BTZ administered intra peritoneally (i.p.) 0.5 mg/kg twice/week for 2 weeks. Tumor sizes were measured and mice were sacrificed when tumors reached 2 cm in diameter or ulceration or major compromise in quality of life. A parallel experiment was performed to allow for tumor harvesting after two injections i.p. of BTZ for RNA-seq analysis, as detailed below.
6-week old female immunodeficient NOD.CB17-Prkdcscid/NCrCrl (NOD/SCID) (Charles River) and immunocompetent C57BL/KaLwRijHsd (Envigo) mice were housed in the animal facility at DFCI. All experiments were performed after approval by the Animal Ethics Committee of the DFCI and performed using institutional guidelines.
(§1) NOD/SCID and C57BL/KaLwRijHsd mice were subcutaneously (sc) injected with 1×10^6 5TGM1 either WT or Calr^KO cells in PBS. When tumor became measurable, mice were randomized to receive either PBS or BTZ administered intra peritoneally (i.p.) 0.5 mg/kg twice/week for 2 weeks. Tumor sizes were measured as previously described (46), and mice were sacrificed when tumors reached 2 cm in diameter or ulceration or major compromise in quality of life. A parallel experiment was performed to allow for tumor harvesting after two injections ip of BTZ for RNA-seq analysis, as detailed below. For BTZ and STING agonist combination studies, C57BL/KaLwRijHsd (n=5/group) and SCID/NOD (n=6/group) mice bearing 5TGM1 WT and C57BL/KaLwRijHsd mice (n=5/group) bearing 5TGM1 Sting^KO tumors were randomized to receive: PBS, BTZ (0.375 mg/kg twice a week for 2 weeks, i.p.), ADU-S100 (100 μg) administered in the peritumoral area (day 1 and 2), or a combination. Tumor sizes were measured as described above. A parallel experiment in C57BL/KaLwRijHsd mice was performed to allow for tumor harvesting after one administration of either BTZ or ADU-S100. Tumors were fixed in 10% formalin for 24 h, and then maintained in 70% ethanol prior to paraffin embedding and processing for IHC to detect CD3 (#nb600 Ab, Novus Bio).

For the next data set, the system named is 5TGM1 MM cells. Description: Cell Counting Kit-8 (CCK-8) proliferation assay. Format: cell-based, murine. The note with it: ADU-S100 0-5 uM, 72 hr. The protocol:
Cell viability was evaluated by Cell Counting Kit-8 (CCK-8) assay (Dojindo Molecular Technologies).
(Tetrazolium dyes change colour on reduction, which living cells bring about.)

For another data set, the system named is cGAS/STING pathway. Description: Western blot of cGAS/STING pathway. Format: cell-based, human. To be noted: AMO1; ADU-S100 10 uM with BTZ 5 nM. The protocol:
Cell lysis was performed in RIPA buffer (Boston Bio Products) supplemented with Halt protease and phosphatase inhibitor cocktail (ThermoFisher Scientific). SDS-PAGE was performed on NuPage Bis-Tris gels (ThermoFisher Scientific) using MOPS or MES running buffer. Gels were dry transferred onto 0.45 μm nitrocellulose membranes using the iBlot® Dry Blotting System (ThermoFisher Scientific). The following Abs were purchased from Cell Signaling Technology: EIF2A (#5324), p-EIF2A (#3398), ATF4 (#11815), CHOP (2895), CALR (#12238), cGAS (#15102), TBK1 (#3504), pTBK1 (#5483), pIRF3 (#29047), STING (#13647). GAPDH (#2118) and B-ACTIN (#4970) were used as loading controls.

Data set [2] relates to 5TGM1 tumors. Description: IHC CD3 staining of tumors. Format: in vivo, mouse. To be noted: tumors retrieved after one administration of the drugs. The protocol:
as §1

The test system of data set [3] is type-I IFN response in AMO1 and NCI-H929 MM cells. Description: Type-I IFN response in MM cells (RNA-seq, qRT-PCR, ELISA). Format: cell-based, human. The note with it: H929; STING agonist 10 uM with BTZ 5 nM. The method, then:
Total RNA from multiple myeloma cells was prepared with TRIzol™ (ThermoFisher Scientific) and RNA Clean and Concentrator™-5 kit (Zymo Research) following the product instructions. RNA integrity and quantity was assessed by NanoDrop Spectrophotometer (ThermoFisher Scientific). For analysis of mRNA expression, oligo-dT-primed cDNA was obtained using the High Capacity cDNA Reverse Transcription Kit (ThermoFisher Scientific), and used as template to quantify: human and murine IFNA1 (Hs03044218_g1, Mm03030145_gH), human and murine IFNB1 (Hs01077958_s1, Mm00439552_s1), human and murine CXCL9 (Hs00171065_ml, Mm00434946_ml), and human and murine GAPDH (Hs02786624_g1, Mm99999915_g1). Analysis was determined by RT-PCR using TaqMan®Fast Universal PCR Master Mix on a 7500 Fast Real-Time PCR System (ThermoFisher Scientific). Comparative RT-PCR was performed in triplicate. Relative expression was calculated using the comparative […] (Ct) method.
AMO1^WT and STING^KO cells were either untreated or treated with BTZ for 24 h. Supernatant was collected, and secretion of CXCL9 chemokines was analyzed by MIG (CXCL9) Human Instant ELISA™ Kit (#BMS285INST, ThermoFisher Scientific).
AMO1 WT and STING^KO were cultured for 16 h in the presence of absence of BTZ (5 nM). RNA was extracted as previously described and submitted to NovaSeq RNAseq analysis followed by VIPER NGS Analysis pipeline (Cornwell et al. (2018) BMC Bioinformatics; 19(1):135). Lists of DEGs were applied to the GSEA software. RNAseq data have been submitted to Gene Expression Omnibus (accession number: GSE171837).
(In general: Quantitative PCR measures a nucleic acid by following its amplification.)

A further data set deals with MM cell lines. The note with it: different MM cell lines; cited from earlier work.
For another data set, the system named is HR-SMM. To be noted: cited from earlier work.
For data set [4], the system named is AMO1, H929 and KMS11 MM cells. Description: Phagocytosis assay of MM cells by monocyte-derived DCs. Format: cell-based, human. The note with it: AMO1 GABARAP^KO after BTZ, rCALR 3 ug/10^6 cells. The protocol:
Mo-DCs were generated from CD14+ peripheral blood monocytes were positively selected using magnetic beads (Miltenyi Biotec) and cultured for 6 days in mo-DC differentiation medium containing GM-CSF and IL-4 (130-094-812; Miltenyi Biotec) to generate Mo-DCs. AMO1, KMS11 and H929 cells lines, as well as patient MM cells, were stained with CellTrace™ Far Red (ThermoFisher Scientific), cultured with or without BTZ (for 16 h), and then incubated in 48-well plates for 4 h at 1:1 ratio with CellTrace™ CFSE stained Mo-DCs. Cells were then collected, and phagocytosis analysis was performed by flow cytometry and confocal microscopy. Analagous phagocytosis experiments was performed using 5TGM1 murine MM and immature murine DC line JAWSII.
Collected cells were analyzed using the BD LRSFortessa™ X-20 flow cytometer. Mo-DCs that engulfed MM cells were CFSE and FAR-RED double positive. Fold increase in percentage of double positive DCs after co-culture with BTZ treated vs untreated MM cells was compared.
Mo-DCs were generated from CD14+ peripheral blood monocytes from healthy donors, positively selected using magnetic beads (Miltenyi Biotec), cultured for 6 days in mo-DC differentiation medium containing GM-CSF and IL-4 (130-094-812; Miltenyi Biotec). AMO1 and NCI-H929 cells lines, as well as patient MM cells, were stained with CellTrace™ Far Red (ThermoFisher Scientific), cultured with or without BTZ for 16 h, and then incubated in 48-well plates for 4 h at 1:1 ratio with CellTrace™ CFSE stained Mo-DCs. Cells were then collected, and phagocytosis analysis was performed by flow cytometry and confocal microscopy. Analagous phagocytosis experiments were performed using 5TGM1 murine multiple myeloma and JAWSII cell line that was used as source of immature murine DCs.
Flow cytometry-based assay: Collected cells were analyzed using the BD LRSFortessa X-20 flow cytometer. Mo-DCs that engulfed MM cells were CFSE and FAR-RED double positive. Fold increase in percentage of double positive DCs after co-culture with BTZ treated vs untreated MM cells was compared.

Consider `Nc1ncnc2c1ncn2[C@@H]1O[C@@H]2COP(=O)([S-])O[C@@H]3[C@H](O)[C@@H](COP([O-])(=S)O[C@H]2[C@H]1O)O[C@H]3n1cnc2c(N)ncnc21.[Na+].[Na+]` (some centres unmarked) [ADU-S100], for which the anti-tumor activity result in the data set with 5TGM1 tumors [1] (5TGM1 Sting^KO tumors in immunocompetent mice) is on record as “still retained a partial anti-multiple myeloma activity”. In the data set with 5TGM1 tumors [1] (5TGM1 WT in immunodeficient NOD/SCID mice, BTZ 0.375 mg/kg, ADU-S100 100 ug day 1 and 2), the anti-tumor effects entry is on record as “abrogated the anti-tumor effects”. Moreover, the “direct killing of MM cells (live cells vs untreated)” value with 5TGM1 MM cells was “sensitive to a direct killing”. In addition, in the data set on cGAS/STING pathway, the “phosphorylated TBK1” value is listed as “higher levels of phosphorylated TBK1 kinase”. Moreover, in the data set on 5TGM1 tumors [2], the “CD3+ T cell infiltration within tumors (IHC)” value is given as “increased CD3+ T cell infiltration within tumors”. In data set [3], the “transcription of IFNA1 and IFNB1” value was “increased transcription of IFNA1 and IFNB1”.
For the molecule `CC(C)C[C@H](NC(=O)[C@H](CCc1ccccc1)NC(=O)CN1CCOCC1)C(=O)N[C@@H](Cc1ccccc1)C(=O)N[C@@H](CC(C)C)C(=O)[C@@]1(C)CO1` [carfilzomib], the CRT exposure entry in the data set with MM cell lines is “shown to expose CRT in different MM cell lines”.
With `Nc1cccc2c1CN(C1CCC(=O)NC1=O)C2=O` (centres unmarked) [lenalidomide], the “progression of HR-SMM” value in the data set on HR-SMM (lenalidomide alone) was “delay progressions of HR-SMM”. Besides, in the data set with HR-SMM (lenalidomide cohort), the “treatment discontinuation and secondary cancers” value was “high rate of treatment discontinuation and secondary cancers”.

B1: rCRT: recombinant calreticulin purchased from Sigma (SRP8001) (protein)
chain: EPAVYFKEQFLDGDGWTSRWIESKHKSDFGKFVLSSGKFYGDEEKDKGLQTSQDARFYALSASFEPFSNKGQTLVVQFTVKHEQNIDCGGGYVKLFPNSLDQTDMHGDSEYNIMFGPDICGPGTKKVHVIFNYKGKNVLINKDIRCKDDEFTHLYTLIVRPDNTYEVKIDNSQVESGSLEDDWDFLPPKKIKDPDASKPEDWDERAKIDDPTDSKPEDWDKPEHIPDPDAKKPEDWDEEMDGEWEPPVIQNPEYKGEWKPRQIDNPDYKGTWIHPEIDNPEYSPDPSIYAYDNFGVLGLDLWQVKSGTIFDNFLITNDEAYAEEFGNETWGVTKAAEKQMKDKQDEEQRLKEEEEDKKRKEEEEAEDKEDDEDKDEDEEDEEDKEEDEEEDVPGQAKDEL
Regarding B1, the “phagocytosis of MM cells by DCs with recombinant calreticulin add-back” value is on record as “confirmed the on-target effect GABARAP^KO; also recorded: restored phagocytosis of MM cells after BTZ” in data set [4] and “increases the immune response against the cancer cells” in data set [4] (listed as recombinant CRT).
